From patent publication US11377423B2, “Inhibitors of histone deacetylase” (The Broad Institute, Inc., priority 2012, dated 2022)
Like-named read-outs stand apart in the source and are kept apart here.

Experiments:
HDAC7 = HDAC7 (Homo sapiens (Human), UniProt Q8WUI4); assay: Caliper HDAC enzymatic endpoint assay, HDAC7; type: biochemical; details: Table 2C; read-out: HDAC7 IC50 after 0 hr preincubation
Method: The Caliper HDAC Assay Buffer (acronym HAB, 1 liter) was prepared as follows:
Substrate B was prepared as 2 mM in 100% DMSO. Its final concentration in the assay for HDACs 4, 5, 7, 8, 9 is 2 μM.
LBH was used as quench inhibitor to stop the reaction at the end point.
IC50 values are in micromolar.

HDAC3 = HDAC3 (Homo sapiens (Human), UniProt O15379); assay: Caliper HDAC enzymatic endpoint assay, HDAC3; type: biochemical
Sequence of HDAC3 (O15379 whole entry): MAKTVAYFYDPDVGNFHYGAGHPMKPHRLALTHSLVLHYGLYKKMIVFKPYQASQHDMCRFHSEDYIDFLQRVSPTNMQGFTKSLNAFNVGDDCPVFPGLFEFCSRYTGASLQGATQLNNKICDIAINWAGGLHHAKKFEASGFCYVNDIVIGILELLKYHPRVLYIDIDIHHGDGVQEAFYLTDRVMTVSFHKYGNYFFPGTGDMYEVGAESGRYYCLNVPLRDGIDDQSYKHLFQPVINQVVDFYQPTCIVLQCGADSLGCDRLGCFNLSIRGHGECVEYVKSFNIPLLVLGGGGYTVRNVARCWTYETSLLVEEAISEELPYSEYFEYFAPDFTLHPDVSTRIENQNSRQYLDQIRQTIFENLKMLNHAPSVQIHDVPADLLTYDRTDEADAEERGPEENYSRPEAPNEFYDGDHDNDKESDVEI
Sequence of HDAC3 (Q9Y618 395-489 partner): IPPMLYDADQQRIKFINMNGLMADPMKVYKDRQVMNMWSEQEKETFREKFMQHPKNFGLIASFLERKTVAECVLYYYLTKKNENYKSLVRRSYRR
Method: (§1) Substrate A was prepared as 2 mM in DMSO. Its final concentration in the assay for HDACs 1, 2, 3, 6 is 2 μM.
(§2) Below is the HDAC and Substrate concentration used in this assay.

HDAC6 = HDAC6 (Homo sapiens (Human), UniProt Q9UBN7); assay: Caliper HDAC enzymatic endpoint assay, HDAC6; type: biochemical; details: Table 2C; read-out: HDAC6 IC50 after 0 hr preincubation
Sequence of HDAC6 (Q9UBN7 whole entry): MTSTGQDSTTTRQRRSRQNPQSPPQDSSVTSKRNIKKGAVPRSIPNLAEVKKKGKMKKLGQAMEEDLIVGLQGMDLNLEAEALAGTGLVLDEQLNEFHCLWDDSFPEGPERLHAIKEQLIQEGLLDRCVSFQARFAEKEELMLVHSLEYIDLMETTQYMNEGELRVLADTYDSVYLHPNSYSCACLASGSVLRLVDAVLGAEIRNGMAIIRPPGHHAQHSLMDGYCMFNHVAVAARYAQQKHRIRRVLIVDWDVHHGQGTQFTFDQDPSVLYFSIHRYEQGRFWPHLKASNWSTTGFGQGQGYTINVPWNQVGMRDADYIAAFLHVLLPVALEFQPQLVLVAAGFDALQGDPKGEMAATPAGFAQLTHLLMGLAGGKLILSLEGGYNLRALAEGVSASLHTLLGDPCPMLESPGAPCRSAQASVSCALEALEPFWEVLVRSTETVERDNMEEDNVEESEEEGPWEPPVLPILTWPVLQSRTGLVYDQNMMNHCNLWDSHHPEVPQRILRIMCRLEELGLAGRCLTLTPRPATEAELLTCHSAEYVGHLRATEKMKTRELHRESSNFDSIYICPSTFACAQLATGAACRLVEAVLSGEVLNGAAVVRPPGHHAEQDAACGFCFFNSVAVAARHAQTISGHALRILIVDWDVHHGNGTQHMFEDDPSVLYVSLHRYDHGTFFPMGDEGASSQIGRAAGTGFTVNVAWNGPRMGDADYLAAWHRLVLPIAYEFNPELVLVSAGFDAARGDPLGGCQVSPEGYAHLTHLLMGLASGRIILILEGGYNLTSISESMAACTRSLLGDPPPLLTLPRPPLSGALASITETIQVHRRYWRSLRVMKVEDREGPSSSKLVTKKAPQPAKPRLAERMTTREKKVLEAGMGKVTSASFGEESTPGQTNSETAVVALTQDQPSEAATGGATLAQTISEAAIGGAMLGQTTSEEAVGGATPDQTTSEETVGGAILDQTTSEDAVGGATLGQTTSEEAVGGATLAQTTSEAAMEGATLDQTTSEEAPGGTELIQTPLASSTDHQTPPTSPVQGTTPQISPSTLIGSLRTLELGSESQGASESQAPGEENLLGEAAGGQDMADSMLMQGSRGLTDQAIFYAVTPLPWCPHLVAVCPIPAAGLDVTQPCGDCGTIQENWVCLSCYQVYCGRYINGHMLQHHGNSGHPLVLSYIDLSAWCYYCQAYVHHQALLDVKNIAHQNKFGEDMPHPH
Method: as §1, §2

INS-1E cells = assay: ER stress / UPR markers by qPCR and immunoblotting; type: cell-based, rat; details: 10 μM, GLT
Method: INS-1E cells (one million/well) were seeded in 6-well plates in 2 mL complete medium. After two days, medium was removed and cells were exposed to 2 mL medium/well with the indicated concentrations of palmitate, glucose, HDAC inhibitors and/or vehicle. RNA was purified (Qiagen) and cDNA synthesis performed done according to manufacturers' guidelines (Applied Biosystems) and real-time PCR performed using the SYBR green method (Applied Biosystems). Each cDNA sample in triplicate was subjected to two individual PCR amplifications either for the gene of interest or the reference gene β-actin. See table below for primer sequences. INS-1E cells (one million/well) were seeded in 6-well plates in 2 mL complete medium. After two days, medium was removed and cells were exposed to 2 mL medium/well with the indicated concentrations of palmitate, glucose, test compounds and/or vehicle. Cells were lysed using Passive Lysis Buffer (Promega) containing protease inhibitors (Roche). Lysates were adjusted for protein concentration (Bradford) and protein separated by SDS-PAGE and transferred to PVDF membranes. Blots were developed using a chemiluminescence detection system (SuperSignal, Thermo Fisher Scientific), and light emission was captured using an Imaging Station 4000MM (Carestream). […] Gene expressions (vehicle=open bars, compound 1=light grey bars, GLT=black bars, GLT and compound 1=dark grey bars) were analyzed by qPCR (FIGS. 14A, 14B, 14D, 14E, and 14F) and protein levels (FIGS. 14C and 14G) (24 h) by immunoblotting. Representative blots are shown. Data are presented as fold to CTRL+SEM n=3-4, ns=not significant, *p<0.05, **p<0.01, ***p<0.001 vs unexposed cells; #p<0.05, ##p<0.01, ###p<0.001 vs. GLT treated cells, ANOVA with Tukey corrected test.

Sequence of HDAC7 (Q8WUI4 whole entry): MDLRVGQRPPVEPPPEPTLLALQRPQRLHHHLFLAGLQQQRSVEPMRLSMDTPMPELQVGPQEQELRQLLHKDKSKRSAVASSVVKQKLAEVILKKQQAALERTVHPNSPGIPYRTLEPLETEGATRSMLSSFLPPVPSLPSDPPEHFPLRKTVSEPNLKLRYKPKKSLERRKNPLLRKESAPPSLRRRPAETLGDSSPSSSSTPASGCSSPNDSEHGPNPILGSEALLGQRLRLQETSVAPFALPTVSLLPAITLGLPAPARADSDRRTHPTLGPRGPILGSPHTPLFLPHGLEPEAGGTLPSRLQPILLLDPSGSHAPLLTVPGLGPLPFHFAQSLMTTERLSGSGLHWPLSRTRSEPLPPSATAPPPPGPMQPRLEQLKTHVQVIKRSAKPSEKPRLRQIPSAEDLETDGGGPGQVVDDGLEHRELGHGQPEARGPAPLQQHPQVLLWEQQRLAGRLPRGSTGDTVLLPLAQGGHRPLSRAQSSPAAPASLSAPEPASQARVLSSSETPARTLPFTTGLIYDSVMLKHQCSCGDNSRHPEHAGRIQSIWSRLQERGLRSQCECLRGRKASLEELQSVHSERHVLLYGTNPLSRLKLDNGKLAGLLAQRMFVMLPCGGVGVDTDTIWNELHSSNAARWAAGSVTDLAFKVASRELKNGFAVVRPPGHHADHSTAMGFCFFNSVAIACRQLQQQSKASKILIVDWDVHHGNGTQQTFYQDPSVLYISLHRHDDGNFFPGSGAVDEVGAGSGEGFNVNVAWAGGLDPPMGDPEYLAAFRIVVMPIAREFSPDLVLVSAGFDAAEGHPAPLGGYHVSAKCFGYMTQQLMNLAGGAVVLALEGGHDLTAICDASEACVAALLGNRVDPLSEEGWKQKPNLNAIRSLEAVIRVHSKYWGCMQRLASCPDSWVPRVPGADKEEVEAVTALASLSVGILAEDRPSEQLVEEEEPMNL

CC(=O)Nc1ccc(C(=O)Nc2ccc(F)cc2N)cc1 [Compound 1, 4-acetamido-N-(2-amino-4-fluorophenyl)benzamide]
IC50 (HDAC7): > 33000 nM
more potent inhibitor of HDAC3 than compounds 3 and 4 (HDAC3; IC50, 3 h preincubation): 5-10 times
IC50 (HDAC3; read-out: HDAC3 IC50 3 h Prein, Table 2, 3 h preincubation): 68 nM
IC50 (HDAC3; read-out: HDAC3 IC50 3 h Preinc, Table 2A, 3 h preincubation): 68 nM
IC50 (HDAC3; read-out: HDAC3 IC50 @3 hr, 3 hr preincubation): 68 nM
IC50 (HDAC6): > 33000 nM
Atf4 transcription factor induction (INS-1E cells): did not affect Atf4 transcription factor induction
levels of the ER chaperone Bip mRNA (INS-1E cells): did not change
splicing of Xbp1 to Xbp1s (INS-1E cells): did not affect splicing
ATF4-mediated induction of Chop (INS-1E cells; 9 hrs): decreased
ATF4-mediated induction of Atf3 (INS-1E cells; 24 hrs): decreased
CHOP mRNA and protein induction (INS-1E cells; 24 hrs): completely reversed
phosphorylation of JNK (pJNK/tJNK) (INS-1E cells; 24 hrs): inhibited phosphorylation of JNK
